Measured values: patent US20080213341A1, “Butyric Acid Esters of Carbohydrates and Carbohydrate Polyols” (priority 2005, published 2008)
Read-outs that look alike come from different tables or passages of the source.

Tests used:
[1] = system: intestinal bacteria of the human large intestine; assay: In vitro fermentation with intestinal bacteria of the human large intestine (feces suspension); assay type: in vitro ADME; conditions: for x-fold increase in the butyrate concentration in the fermentation medium in comparison to the nonesterified carbohydrate or carbohydrate polyol: in vitro fermentation; for butyrate release/formation (in words): in vitro fermentation with human intestinal bacteria; for increase of the butyrate in the fermentation broths: after a short fermentation time
Method: It was investigated in in vitro fermentation experiments with intestinal bacteria of the human large intestine whether butyric acid esters listed above are hydrolyzed and metabolized by bacteria of the large intestine or their enzymes and butyrate is released in the […]. The following medium was used for in vitro fermentation experiments: [table] 9 ml of the […] medium described above were treated with 0.5% (w/v) of the butyric acid ester to be tested and 0.2% (w/v) of taurocholic acid. This medium was subsequently inoculated with 1 ml of a 10% strength feces suspension (mixed feces of three subjects) in anaerobic 50 mmol/l phosphate buffer, pH 7.0, to which 0.5 g/l of cysteine/HCl had been added as a reductant. Hungate tubes were incubated at 37° C. with shaking for 72 h, samples were taken at different times and these were investigated for short-chain fatty acids, lactic acid and pH. The extent of the metabolization of the test substances was carried out by means of the determination of the release of butyrate.

[2] = oral administration / uptake via food; cited from earlier work
[3] = system: colon cancer; conditions: orally administered; cited from earlier work
[4] = 0.5% (w/v) substrate, human feces suspension, 37° C., 72 h

g of butyrate/g of substrate [1, 4]	x-fold increase in the butyrate concentration in the fermentation medium in comparison to the nonesterified carbohydrate or carbohydrate polyol ([1]; 72 h) [x-fold]	butyrate release/formation (in words) [1]	Molecule	further results
0.2 g of butyrate/g of substrate	1.3		Pentabutyrylisomalt	
0.7 g of butyrate/g of substrate	2.5	high butyrate formation	Tetrabutyrylxylitol	x-fold increase in the butyrate concentration in the fermentation medium in comparison to the nonesterified carbohydrate or carbohydrate polyol ([1]; 72 h, listed as tetrabutyrylxylitol): more than two-fold
0.7 g of butyrate/g of substrate	2.7	high butyrate formation	Tetrabutyrylsorbitol	increase of the butyrate in the fermentation broths [1]: strong increase; x-fold increase in the butyrate concentration in the fermentation medium in comparison to the nonesterified carbohydrate or carbohydrate polyol ([1]; 72 h, listed as tetrabutyrylsorbitol): more than twofold
0.7 g of butyrate/g of substrate	2.8	high butyrate formation	Tributyrylsorbitol	increase of the butyrate in the fermentation broths [1]: strong increase; x-fold increase in the butyrate concentration in the fermentation medium in comparison to the nonesterified carbohydrate or carbohydrate polyol ([1]; 72 h, listed as tributyrylsorbitol): more than twofold

Further lines, the molecule ahead of its results:

Molecule	g of butyrate/g of substrate [1, 4]	x-fold increase in the butyrate concentration in the fermentation medium in comparison to the nonesterified carbohydrate or carbohydrate polyol ([1]; 72 h) [x-fold]	butyrate release/formation (in words) [1]	further results
Isomalt [reference compound]	0.2 g of butyrate/g of substrate			g of butyrate/g of substrate ([1]; 0.5% (w/v) substrate, human feces suspension, 37° C., 72 h, listed as isomalt): approximately 0.2 g of butyrate/g of substrate
CCCC(=O)OCC(COC(=O)CCC)OC(=O)CCC [tributyrin]				cleavage / absorption in the small intestine [2]: rapidly cleaved in the anterior small intestine; activity in the prevention of colon cancer [3]: inactive
CCCC(=O)O [butyrate, butyric acid]				cleavage / absorption in the small intestine [2]: rapidly and completely absorbed in the small intestine
Heptabutyryldiacetylisomalt	0.1 g of butyrate/g of substrate	0.4		g of butyrate/g of substrate ([1]; 0.5% (w/v) substrate, human feces suspension, 37° C., 72 h, listed as heptabutyryldiacetylisomalt): about 0.1 g of butyrate/g of substrate
Tetrabutyryldiacetylsorbitol				g of butyrate/g of substrate [1]: 0.3 g of butyrate/g of substrate
Hexabutyrylsorbitol	0.2 g of butyrate/g of substrate	0.8		
Pentabutyrylxylitol	0.4 g of butyrate/g of substrate	1.5	Large amounts of butyrate were also released	
Octabutyrylisomalt	0.1 g of butyrate/g of substrate	0.5		g of butyrate/g of substrate ([1]; 0.5% (w/v) substrate, human feces suspension, 37° C., 72 h, listed as octabutyrylisomalt): about 0.1 g of butyrate/g of substrate
Tributyrylxylitol	0.6 g of butyrate/g of substrate	2.2	Large amounts of butyrate were also released	
